The record followed here is patent US8962627B2, “Oxime derivatives and their use as allosteric modulators of metabotropic glutamate receptors” (Prestwick Chemical, Inc., priority 2009, dated 2015).

Molecules are shown by their SMILES. Structures can show the parent of a compound that is named as a salt.

T1 sequence (Q14833 33-912): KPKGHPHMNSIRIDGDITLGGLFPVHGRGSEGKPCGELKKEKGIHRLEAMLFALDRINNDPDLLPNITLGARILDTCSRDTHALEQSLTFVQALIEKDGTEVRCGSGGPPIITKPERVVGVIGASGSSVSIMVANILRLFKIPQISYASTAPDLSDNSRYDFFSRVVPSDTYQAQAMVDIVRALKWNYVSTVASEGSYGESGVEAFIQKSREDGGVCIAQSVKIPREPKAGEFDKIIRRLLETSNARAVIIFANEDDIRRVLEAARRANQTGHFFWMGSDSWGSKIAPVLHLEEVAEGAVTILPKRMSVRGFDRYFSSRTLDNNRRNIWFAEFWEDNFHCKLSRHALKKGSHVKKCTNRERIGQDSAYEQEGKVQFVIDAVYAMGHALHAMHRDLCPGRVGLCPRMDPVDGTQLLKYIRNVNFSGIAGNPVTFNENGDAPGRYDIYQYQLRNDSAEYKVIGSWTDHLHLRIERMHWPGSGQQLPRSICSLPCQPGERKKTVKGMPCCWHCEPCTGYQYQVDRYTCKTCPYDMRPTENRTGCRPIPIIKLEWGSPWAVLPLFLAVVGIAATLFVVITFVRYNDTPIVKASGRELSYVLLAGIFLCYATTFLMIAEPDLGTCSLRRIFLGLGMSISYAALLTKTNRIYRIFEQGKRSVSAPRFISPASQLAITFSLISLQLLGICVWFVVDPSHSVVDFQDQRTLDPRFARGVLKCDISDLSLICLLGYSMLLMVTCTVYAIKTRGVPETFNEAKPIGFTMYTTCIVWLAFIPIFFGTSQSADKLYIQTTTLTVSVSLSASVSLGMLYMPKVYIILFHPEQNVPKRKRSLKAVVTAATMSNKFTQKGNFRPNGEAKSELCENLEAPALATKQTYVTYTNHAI

System in the first series: not given
Test: not given
Conditions: not given
As for `ON=c1cc(-c2cc3ccccc3cn2)oc2cc(-c3ccc(-c4ccccc4)cc3)ccc12` [Example 48, 7-(4-biphenyl)-2-isoquinolin-3-yl-chromen-4-one oxime], the melting point (commonly the temperature, or range, at which the solid turns liquid) was in the range of 283 to 285 °C. The compound `ON=c1cc(-c2cc3ccccc3cn2)oc2cccc(F)c12` [Example 9] gave a melting point of 275 to 278 °C.

For the compound `CN(C)c1ccc(C#Cc2ccc3c(=NO)cc(-c4cc5ccccc5cn4)oc3c2)cc1` [Example 27, 7-(4-dimethylaminophenyl)ethynyl-2-isoquinolin-3-yl-chromen-4-one oxime], the melting point lay in the range of 235 to 240 °C.

`Cl.ON=c1cc(-c2cc3sccc3cn2)oc2ccc(OCCN3CCc4ccccc4C3)cc12`: the melting point lay in the range of 234 to 237 °C. As to `ON=c1cc(-c2cc3ccccc3cn2)oc2c(F)cc(F)cc12` [Example 7, 6,8-difluoro-2-isoquinolin-3-yl-chromen-4-one oxime], the melting point is 253 to 256 °C. `ON=c1cc(-c2cc3c(Br)cccc3cn2)oc2ccccc12` [Example 17, 2-(5-bromo-isoquinolin-3-yl)-chromen-4-one oxime] came in with a melting point of 268 to 270 °C. Same read-out and setting: in the case of `Cl.NCCOc1ccc2oc(-c3cc4cccn4cn3)cc(=NO)c2c1` it was > 270 °C (dec.). The compound `ON=c1cc(-c2cc3ccccc3cn2)oc2c(Cl)cccc12` [Example 8, 8-chloro-2-isoquinolin-3-yl-chromen-4-one oxime] yielded a melting point of 270 to 272 °C. Same read-out and setting: in the case of `ON=c1cc(-c2cc3ccc(Cl)cc3cn2)oc2ccccc12` [Example 16, 2-(7-chloro-isoquinolin-3-yl)-chromen-4-one oxime] it was 260 to 261 °C; in that of `CN1CCN(CCOc2ccc3oc(-c4cc5ccccc5cn4)cc(=NO)c3c2)CC1` [Example 46, 2-isoquinolin-3-yl-6-[2-(4-methyl-piperazin-1-yl)-ethoxy]-chromen-4-one oxime], 233 to 236 °C. For `ON=c1cc(-c2cc3cc[nH]c3cn2)oc2ccccc12` [Example 75, 2-(1H-Pyrrolo[2,3-c]pyridin-5-yl)-chromen-4-one oxime], the melting point was 270 to 275 °C (dec.). Compound `ON=c1cc(-c2cc3sccc3cn2)oc2ccc(OCCc3ccc(F)cc3)cc12` (as salt: hydrochloride) [Example 130, 6-[2-(4-Fluoro-phenyl)-ethoxy]-2-thieno[3,2-c]pyridin-6-yl-chromen-4-one oxime] came in with a melting point of 228 to 234 °C. Compound `ON=c1cc(-c2ncc3ccccc3n2)oc2ccccc12` [Example 110, 2-quinazolin-2-yl-chromen-4-one oxime] registered a melting point of 239 to 241 °C. `ON=c1cc(-c2cc3ccc(F)cc3cn2)oc2ccccc12` [Example 12, 2-(7-fluoro-isoquinolin-3-yl)-chromen-4-one oxime] gave a melting point of 233 to 235 °C. As to `ON=c1cc(-c2cc3ccccc3cn2)oc2cc(-c3ccccc3)ccc12` [Example 47, 2-isoquinolin-3-yl-7-phenyl-chromen-4-one oxime], the melting point lay within 275 to 278 °C. With `Cc1cc(C)n2cnc(-c3cc(=NO)c4ccccc4o3)cc12` [Example 64, 2-(5,7-dimethyl-Pyrrolo[1,2-c]pyrimidin-3-yl)-chromen-4-one oxime], the melting point is > 250 °C (dec.). Compound `Nc1cccc(C#Cc2ccc3c(=NO)cc(-c4cc5ccccc5cn4)oc3c2)c1` [Example 29, 7-(3-aminophenyl)ethynyl-2-isoquinolin-3-yl-chromen-4-one oxime] came in with a melting point of 272 to 275 °C. For the compound `Cl.ON=c1cc(-c2cc3cccn3cn2)oc2ccc(OCCNC3CCCC3)cc12`, the melting point is > 230 °C (dec.).

Take `CN(C)CCCOc1ccc2oc(-c3cc4cccn4cn3)cc(=NO)c2c1.Cl`: the melting point is > 270 °C (dec.). For the compound `CN1CCN(CCCNc2ccc3c(=NO)cc(-c4cc5ccccc5cn4)oc3c2)CC1` [Example 49, 2-isoquinolin-3-yl-7-[3-(4-methyl-piperazin-1-yl)-propylamino]-chromen-4-one oxime], the melting point lay in the range of 228 to 233 °C.

As for `CN1CCN(CCCNc2ccc3oc(-c4cc5ccccc5cn4)cc(=NO)c3c2)CC1` [Example 45, 2-isoquinolin-3-yl-6-[3-(4-methyl-piperazin-1-yl)-propylamino]-chromen-4-one oxime], the melting point fell in the range of 208 to 211 °C. Take `CN(C)CCOc1ccc2oc(-c3cc4cccn4cn3)cc(=NO)c2c1.Cl`: the melting point is > 275 °C (dec.).

`COc1ccc2cc(-c3cc(=NO)c4ccccc4o3)ncc2c1` [Example 13, 2-(7-methoxy-isoquinolin-3-yl)-chromen-4-one oxime] registered a melting point of 239 to 241 °C. On to `Cl.ON=c1cc(-c2cc3sccc3cn2)oc2ccc(OCCN3CCCOCC3)cc12`, for which the melting point is 223 to 226 °C. Compound `Cc1cc2c(=NO)cc(-c3cc4ccccc4cn3)oc2cc1Br` [Example 3, 7-bromo-2-isoquinolin-3-yl-6-methyl-chromen-4-one oxime] displayed a melting point of 267 to 270 °C.

`Cc1cc2c(=NO)cc(-c3cc4ccccc4cn3)oc2cc1C#Cc1ccccc1` [Example 25] came in with a melting point of 248 to 250 °C. Still for that read-out and setting: in the case of `Cl.O=S1(=O)CCN(CCOc2ccc3oc(-c4cc5sccc5cn4)cc(=NO)c3c2)CC1` it was 195 to 197 °C; in that of `O=c1[nH]c(-c2c/c(=N\O)c3ccccc3o2)cc2ccccc12` [Example 72, 3-{4-[(E)-Hydroxyimino]-4H-chromen-2-yl}-2H-isoquinolin-1-one], 310 to 315 °C (dec.); in that of `CCN1CCN(CCOc2ccc3oc(-c4cc5cccn5cn4)cc(=NO)c3c2)CC1.Cl.Cl` [Example 121], > 240 °C (dec.). On the same count and under the same terms, in the case of `ON=c1cc(-c2cc3ccccc3cn2)oc2cc(C#Cc3ccccc3Cl)ccc12` [Example 32, 7-(2-chlorophenyl)ethynyl-2-isoquinolin-3-yl-chromen-4-one oxime] it was 292 to 297 °C; in that of `ON=c1cc(-c2cc3cccn3cn2)oc2ccc(OCCc3ccc(F)cc3)cc12` (as salt: hydrochloride) [Example 109, 6-[2-(4-fluoro-phenyl)-ethoxy]-2-pyrrolo[1,2-c]pyrimidin-3-yl-chromen-4-one oxime, hydrochloride], 234 to 236 °C; in that of `ON=c1cc(-c2cc3ccc(O)cc3cn2)oc2ccccc12` [Example 60, 2-(7-hydroxy-isoquinolin-3-yl)-chromen-4-one oxime], 248 to 250 °C. As for `COc1cc2cnc(-c3cc(=NO)c4ccccc4o3)cc2cc1OC` [Example 14, 2-(6,7-dimethoxy-isoquinolin-3-yl)-chromen-4-one oxime], the melting point was in the range of 266 to 269 °C. As to `ON=c1cc(-c2cc3cccn3cn2)oc2ccc(OCCn3ccnc3)cc12` (as salt: sodium) [Example 105, 6-(2-imidazol-1-O-ethoxy)-2-pyrrolo[1,2-c]pyrimidin-3-yl-chromen-4-one oxime], the melting point is > 250 °C (dec.). `ON=c1cc(-c2cc3c(cn2)ncn3Cc2ccccc2)oc2ccccc12` [Example 68, 2-(1-Benzyl-1H-imidazo[4,5-c]pyridin-6-yl)-chromen-4-one oxime]: the melting point lay within 148 to 150 °C. Same read-out and setting: in the case of `COc1cccc2cnc(-c3cc(=NO)c4ccccc4o3)cc12` [Example 19, 2-(5-methoxy-isoquinolin-3-yl)-chromen-4-one oxime] it was 245 to 247 °C; in that of `N#Cc1ccc2oc(-c3cc4ccccc4cn3)cc(=NO)c2c1` [Example 38, 6-cyano-2-isoquinolin-3-yl-chromen-4-one oxime], 280 °C (dec.).

A further series concerns the target T1, human mGluR4 transiently over-expressed in HEK-293 cells (Homo sapiens, UniProt Q14833).
T1 construct: expressed in transfected cells; host or cells: HEK-293 cells, transient co-transfection by electroporation
The series can be described thus: Human mGluR4 positive allosteric modulator evaluation using Ca++ functional assay. The format is cell-based. The following applies: HEK-293 cells co-transfected with hmGluR4 and chimeric G protein; EC10 glutamate; intracellular calcium (Fluo4AM); read-out: mean EC50 of agonist/positive allosteric modulator activity on mGluR4. As for the experimental part: Human mGluR4 Positive Allosteric Modulator Evaluation Using Ca^++ Functional Assay
Compounds of the present invention were tested successively for their agonist and positive allosteric modulator activities on human mGluR4 transiently over-expressed in HEK-293 cells. They exert agonist activity if, by themselves in absence of the endogenous glutamate, they are able to activate mGluR4; and they exert positive allosteric modulator activity if they increase the action of the endogenous glutamate.
Cell Culture and Transfection
HEK-293 cells were maintained in Modified Eagle's Medium supplemented with 10% Foetal Calf Serum, 1% Penicillin/Streptomycin and 1% non essential amino acids at 37° C./5% CO2.
Cells were co-transfected by electroporation with two DNA plasmids encoding hmGluR4 and a chimeric G protein allowing redirection of the activation signal to intracellular calcium pathway. Cells were plated after transfection onto polyornithine coated, clear bottom, black-walled, 96-well plates and cultured for 24 h.
Calcium Assay EC50 Determination
Receptor activity was detected by changes in intracellular calcium measured using the fluorescent Ca^2+ sensitive dye, Fluo4AM (Molecular Probes).
The day of the assay, medium was aspirated and replaced during 3 hours by medium without serum supplemented with 1% Glutamax, 1% Penicillin/Streptomycin and 1% non essential amino acids. Then, cells were washed with freshly prepared buffer B (HBSS 1×(PAA), Hepes 20 mM, MgSO4-7H2O 1 mM, Na2CO3 3.3 mM, CaCl2-2H2O 1.3 mM, 0.5% BSA, Probenecid 2.5 mM) and loaded at 37° C. in 5% CO2 for 1.5 hours with buffer B containing 1 μM Fluo4AM 0.1 mg/mL Pluronic Acid, 7 μg/mL Glutamate Pyruvate Transaminase and 2 mM sodium pyruvate. Afterwards cells were washed twice with buffer B and 50 μL of this buffer were added to each well. Addition of compounds and intracellular Ca^2+ measurements (excitation 485 nm, emission 525 nm) were performed by the fluorescence microplate reader FlexStation (Molecular Devices).
Agonist and positive allosteric modulator activities of compounds were consecutively evaluated on the same cells plate. Agonist activity was first tested during 60 s with the addition of compound alone on the cells. Then, the cells were stimulated by an EC10 glutamate concentration and fluorescence recorded for additional 60 s. EC10 glutamate concentration is the concentration giving 10% of the maximal glutamate response. Agonist and/or positive allosteric modulator activity(ies) were evaluated in comparison to basal signal evoked by EC10 glutamate alone.
For EC50 determination, a dose-response test was performed using 6 to 9 concentrations of each compound of the invention. Dose-response curves were fitted using the sigmoidal dose-response (variable slope) analysis in GraphPad Prism program (Graph Pad Inc) and EC50 of agonist/positive allosteric modulator activity was calculated. Dose-response experiments were all performed in duplicate, two times independently.
In general terms: A change in cytosolic calcium serves as a functional read-out for many receptors and channels.
Consider `ON=c1cc(-c2cc3sccc3cn2)oc2ccc(OCCc3ccc(F)cc3)cc12` [Example 130, 6-[2-(4-Fluoro-phenyl)-ethoxy]-2-thieno[3,2-c]pyridin-6-yl-chromen-4-one oxime], for which the EC50 is under 1000 nM. Consider `ON=c1cc(-c2cc3cccn3cn2)oc2cc(OCCCN3CCOCC3)ccc12` [Example 143, 7-(3-Morpholin-4-yl-propoxy)-2-pyrrolo[1,2-c]pyrimidin-3-yl-chromen-4-one oxime hydrochloride], for which the EC50 is under 1000 nM.
